In US5780441A, “Sphingoglycolipid compounds and therapeutic uses thereof” (Kirin Beer Kabushiki Kaisha, priority 1993, dated 1998):

What was measured:
mouse bone marrow cells = experiment: In vitro mouse bone marrow cell-proliferation-promoting effect (3H-TdR uptake); format: cell-based, mouse (BDF1 female); conditions: 4 days; for activity at 0.1 µg/mL / activity at 0.01 µg/mL: Mus musculus, Bone marrow cell, 96 h, read-out: Uptake of 3H-TdR (% of control), bone marrow cells
Outline: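 Femoral bone marrow monocytes from 6-week female BDF1 mice (Lympholite M fraction, 1×10^6 cells/ml in 10% FCS RPMI 1640) cultured with sample for 4 days at 37 °C, 5% CO2. 3H-TdR (0.5 μCi/well) added for final 6 h; uptake ratio versus vehicle reported as activation rate.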

[1] = Solubility in water in aqueous Polysorbate 20 solutions; format: physicochemical
Procedure: Compounds a and b comprising a monosaccharide as a constituent sugar which are disclosed in WO 93/05055 were synthesized as above. A 1 mg of each of the present compounds 4, 31 and 33 and Compound a and b was dissolved in 1 ml of an aqueous Polysorbate 20 solution in a variety of concentrations in order to observe visually the property.

[2] = tested on: mouse splenic lymphocytes; experiment: Influence of Polysorbate on immunostimulating effect (3H-TdR uptake into mouse splenic lymphocytes); format: cell-based, mouse (BDF1 female); conditions: for 3H-TdR uptake: 10% PS20 stock (compound 1 mg/ml), mean of 3 wells
Procedure: Experiment was performed with BDF1 female mice (6 weeks old) purchased from NIPPON SLC K.K. Spleens were removed from mice, and spleen cells were brayed with slide glasses and hemolized with NH4 Cl. 2×10^6cells/ml of the spleen cells which had been hemolized were suspended in 10% FCS RPMI 1640. The cell suspension (100 μl/well) and a vehicle or sample (10 μl/well) which was prepared so as to have a final level shown in Table 3 were added into wells of a round-bottomed 96 well plate, and cultured under the condition of 5% CO2 at 37° C. for 2 days. 0.5 μCi/well of ^3 H-thymidine (^3 H-TdR) was added. After 6 hours, the cells were harvested, and the amount of ^3 H-TdR uptaken into nucleus was measured by a liquid scintillation counter. The ratio (%) of the uptake of ^3 H-TdR in the sample group to that in the vehicle group was calculated and used as the in vitro mouse splenic lymphocyte-proliferation-stimulating rate.
A sample of a solution of 1 mg of Compound 33 prepared in Experimental Example 8 in 1 ml of 10% or 0.1% Polysorbate 20, a sample of a solution of 1 mg of Compound b in 1 ml of 10% Polysorbate 20, or 10% and 0.1% Polysorbate 20, were prepared by subjecting to aseptic filtration followed by sequential 10 time dilution with PBS as shown in Table 5 in order to carry out the experiment described in Experimental Example 6.
In this connection, 1 mg of Compound b was insoluble in 0.1% Polysorbate, and thus no experiment was conducted.

[3] = tested on: P388 mouse leukemia cells; experiment: Life-span-prolonging (anti-tumor) effect on mice subcutaneously inoculated with P388 mouse leukemia cells; format: in vivo, mouse (CDF1 female); conditions: for Survival days ave. ± s. d. / response vs control in vivo at 0.1 mg/kg / T/C (%): 0.1 mg/kg i.v. on days 1, 5 and 9; for Survival days ave. ± s. d.: all marked ** (p < 0.01); for response vs control in vivo at 0.1 mg/kg: Mus musculus, P388, iv, read-out: T/C (%); for response vs control in vivo at 0.1 mg/kg / T/C (%): survival vs vehicle
Outline: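 CDF1 female mice (6 weeks), 5 per group, inoculated subcutaneously with P388 leukemia cells; life-span prolongation assessed. Lentinan and picibanil given intravenously on days 1, 3, 5, 7 and 9 after implantation; sizofilan given subcutaneously on days 1 through 9. Statistics by Mann-Whitney test.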

mouse splenic lymphocyte = experiment: In vitro mouse splenic lymphocyte-proliferation-stimulating effect (3H-TdR uptake); format: cell-based, mouse (BDF1 female); conditions: 2 days
Outline: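 Spleen cells from 6-week-old female BDF1 mice, 2×10^6 cells/ml in 10% FCS RPMI 1640, cultured with vehicle or sample 2 days at 37° C, 5% CO2. ^3H-TdR (0.5 μCi/well) uptake over 6 h by scintillation counting, expressed as % of vehicle.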

[4] = tested on: mixed lymphocyte culture reaction (spleen cells of C57BL/6 and BALB/C mice); experiment: Mixed lymphocyte culture reaction (MLR); format: cell-based, mouse (C57BL/6 stimulator, BALB/C responder); conditions: 42 hours
Outline: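 Mouse one-way MLR: mitomycin C-treated (50 μg/ml, 30 min) C57BL/6 spleen cells stimulated BALB/C responder spleen cells, 2×10^6 cells/ml each, cultured 42 h at 37 °C with sample. ³H-thymidine (0.5 μCi/well) incorporation over a further 8 h gave MLR activating rate as % of vehicle uptake.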

B16 mouse melanoma cells = experiment: Tumor growth inhibition in mice subcutaneously inoculated with B16 mouse melanoma cells; format: in vivo, mouse (BDF1 female); conditions: 0.1 mg/kg i.v. days 1, 5, 9; maximum during 20 days
Procedure: ii) Anti-tumor effect of the compound according to the present invention on mice subcutaneously inoculated with B16 mouse melanoma cells.
Experiment was performed with BDF1 female mice (6 weeks) purchased from NIPPON SLC K.K., which were divided into groups consisting of 6 animals. […]. The subcutaneous tumor volumes [(length×width×height)/2] were measured on days 8, 12, 16 and 20 after implantation to determine the tumor growth inhibiting rate (TGIR) of each sample. TGIR was calculated from the following formula: […]
wherein C: tumor volume in the control group, and
T: tumor volume in the sample adminitered groups.
In this connection, Compounds 1-6 and 7-9 were tested in the same time, respectively.

lethally irradiated mice = experiment: Radioprotective effect: life-span prolongation of lethally irradiated mice; format: in vivo, mouse (BDF1 female); conditions: 0.1 mg/kg i.v. days 0, 4, 8, 9 Gy X-ray, groups of 10
Procedure: Life-span-prolonging effects of the present compounds on lethally irradiated mice.
Experiment was performed with BDF1 female mice (6 weeks old) purchased from NIPPON SLC K.K., which were divided into groups consisting of 10 animals. Mice were irradiated generally with 9 Gy of X-ray with an X-ray generating apparatus, Hitachi, MBR-1520R (radiation day: day 0). Samples at a dose of 0.1 mg/kg were administered into tail vein on days 0, 4 and 8 in order to observe the mortality of the animals for 40 days.
In the table, two experiments are separated by the broken line.

Molecule: CCCCCCCCCCCCCCCCCCCCCCCCCC(=O)N[C@@H](CO[C@H]1O[C@H](CO)[C@H](O)[C@H](O)[C@H]1O)[C@H](O)[C@H](O)CCCCCCCCCCCCCC [Compound b, (2S,3S,4R)-1-(α-D-galactopyranosyloxy)-2-hexacosanoylamino-3,4-octadecanediol, reference compound]
- activity at 0.1 µg/mL (mouse bone marrow cells; 10^-1 μg/ml): 381%
- activity at 0.01 µg/mL (mouse bone marrow cells; 10^-2 μg/ml): 438%
- solubility in Polysorbate, in words ([1]; 1 mg in 0.1% Polysorbate): insoluble
- 3H-TdR uptake in words, compound with Polysorbate 20 ([2]; 10 μg/ml (0.1% Polysorbate 20) and 1 μg/ml (0.01%) vs 0.1 μg/ml (0.001%)): suppressed
- 3H-TdR uptake ([2]; dilution 10^2): 201 cpm
- 3H-TdR uptake ([2]; dilution 10^3): 18300 cpm
- 3H-TdR uptake ([2]; dilution 10^4): 24439 cpm
- 3H-TdR uptake ([2]; dilution 10^5): 25555 cpm
- Survival days ave. ± s. d. [3]: 15.6 ± 0.5 days
- response vs control in vivo at 0.1 mg/kg [3]: 122%

Molecule: O-(N-acetyl-2-amino-2-deoxy-α-D-galactopyranosyl)-(1→3)-O-[α-D-glucopyranosyl-(1→2)]-O-α-D-galactopyranosyl-(1→1)-(2S,3S,4R)-2-amino-N-[(R)-2-hydroxytetracosanoyl]-16-methyl-1,3,4-octadecanetriol [Compound 9]
- Uptake of 3H-TdR (% of control), bone marrow cells (mouse bone marrow cells; 10^-1 μg/ml): 286 % of control
- Uptake of 3H-TdR (% of control), bone marrow cells (mouse bone marrow cells; 10^-2 μg/ml): 91 % of control
- Uptake of 3H-TdR (% of control), splenic lymphocytes (mouse splenic lymphocyte; 10^0 μg/ml): 902 % of control
- Uptake of 3H-TdR (% of control), splenic lymphocytes (mouse splenic lymphocyte; 10^-1 μg/ml): 924 % of control
- Uptake of 3H-TdR (% of control), splenic lymphocytes (mouse splenic lymphocyte; 10^-3 μg/ml): 513 % of control
- MLR activating rate (%) ([4]; 1 × 10^0 μg/ml): 247%
- MLR activating rate (%) ([4]; 1 × 10^-1 μg/ml): 205%
- Maximum tumor growth inhibiting rate, TGIR (%) (B16 mouse melanoma cells): 74.8%
- Survival days ave. ± s. d. [3]: 16.4 ± 1.8 days
- T/C (%) [3]: 128%
- Number of surviving mice (lethally irradiated mice; day 10): 10 mice
- Number of surviving mice (lethally irradiated mice; day 15): 8 mice
- Number of surviving mice (lethally irradiated mice; day 20): 5 mice
- Number of surviving mice (lethally irradiated mice; day 25): 3 mice
- Number of surviving mice (lethally irradiated mice; day 30): 3 mice
- Number of surviving mice (lethally irradiated mice; day 35): 3 mice
- Number of surviving mice (lethally irradiated mice; day 40): 3 mice

Molecule: CCCCCCCCCCCCCCCCCCCCCCCCCC(=O)N[C@@H](CO[C@H]1O[C@H](CO[C@H]2O[C@H](CO)[C@H](O)[C@H](O)[C@H]2O)[C@@H](O)[C@H](O)[C@H]1O)[C@H](O)[C@H](O)CCCCCCCCCCCCCC [Compound 31, O-α-D-galactopyranosyl-(1→6)-O-α-D-glucopyranosyl-(1→1)-(2S,3S,4R)-2-amino-N-hexacosanoyl-1,3,4-octadecanetriol]
- activity at 0.1 µg/mL (mouse bone marrow cells; 10^-1 μg/ml): 296%
- activity at 0.01 µg/mL (mouse bone marrow cells; 10^-2 μg/ml): 594%
- activity at 1 µg/mL (mouse splenic lymphocyte; Mus musculus, Splenic lymphocyte, 48 h, 10^0 μg/ml, read-out: Uptake of 3H-TdR (% of control), splenic lymphocytes): 615%
- activity at 0.001 µg/mL (mouse splenic lymphocyte; Mus musculus, Splenic lymphocyte, 48 h, 10^-3 μg/ml, read-out: Uptake of 3H-TdR (% of control), splenic lymphocytes): 744%
- activity at 1 µg/mL ([4]; Mus musculus, Lymphocyte, 1 × 10^0 μg/ml, read-out: MLR activating rate (%)): 206%
- activity at 0.1 µg/mL ([4]; Mus musculus, Lymphocyte, 1 × 10^-1 μg/ml, read-out: MLR activating rate (%)): 196%
- amount of Polysorbate 20 required for dissolving, relative to that required for Compound b ([1]; vs Compound b): 1/100
- Survival days ave. ± s. d. [3]: 14.6 ± 0.5 days
- response vs control in vivo at 0.1 mg/kg [3]: 114%
- life-span-prolonging effect (anti-tumor effect), in words ([3]; P388 s.c. system): intensive anti-tumor effects almost in the same level as that of Compound b

Molecule: CCCCCCCCCCCCCCCCCCCCCC[C@@H](O)C(=O)N[C@@H](CO[C@H]1O[C@H](CO)[C@H](O)[C@H](O[C@H]2O[C@H](CO)[C@H](O)[C@H](O)[C@H]2NC(C)=O)[C@H]1O[C@H]1O[C@H](CO)[C@@H](O)[C@H](O)[C@H]1O)[C@H](O)[C@H](O)CCCCCCCCCCCC(C)C [Compound 7, O-(N-acetyl-2-amino-2-deoxy-α-D-galactopyranosyl)-(1→3)-O-[α-D-glucopyranosyl-(1→2)]-O-α-D-galactopyranosyl-(1→1)-(2S,3S,4R)-2-amino-N-[(R)-2-hydroxytetracosanoyl]-16-methyl-1,3,4-heptadecanetriol]
- Uptake of 3H-TdR (% of control), bone marrow cells (mouse bone marrow cells; 10^-1 μg/ml, 5760 min): 451 % of control
- Uptake of 3H-TdR (% of control), bone marrow cells (mouse bone marrow cells; 10^-2 μg/ml, 5760 min): 478 % of control
- Uptake of 3H-TdR (% of control), splenic lymphocytes (mouse splenic lymphocyte; 10^0 μg/ml, 2880 min): 927 % of control
- Uptake of 3H-TdR (% of control), splenic lymphocytes (mouse splenic lymphocyte; 10^-2 μg/ml, 2880 min): 705 % of control
- Uptake of 3H-TdR (% of control), splenic lymphocytes (mouse splenic lymphocyte; 10^-3 μg/ml, 2880 min): 593 % of control
- MLR activating rate (%) ([4]; 1 × 10^0 μg/ml, 2520 min): 234%
- MLR activating rate (%) ([4]; 1 × 10^-1 μg/ml, 2520 min): 195%
- Maximum tumor growth inhibiting rate, TGIR (%) (B16 mouse melanoma cells): 78.1%
- Survival days ave. ± s. d. [3]: 15.8 ± 0.9 days
- T/C (%) [3]: 123%
- Number of surviving mice (lethally irradiated mice; day 10): 10 mice
- Number of surviving mice (lethally irradiated mice; day 15, 0.1 mg/kg): 8 mice
- Number of surviving mice (lethally irradiated mice; day 20, 0.1 mg/kg): 6 mice
- Number of surviving mice (lethally irradiated mice; day 25, 0.1 mg/kg): 3 mice
- Number of surviving mice (lethally irradiated mice; day 30, 0.1 mg/kg): 3 mice
- Number of surviving mice (lethally irradiated mice; day 35, 0.1 mg/kg): 3 mice
- Number of surviving mice (lethally irradiated mice; day 40, 0.1 mg/kg): 3 mice
